Assay results reported in patent US20020132809A1, “Heterocyclic carboxamide derivatives as inhibitors of nitric oxide production” (Fujisawa Pharmaceutical Co. Ltd., priority 1998, published 2002).

Key:
rat cardiac allograft = experiment: Protective effect of the compound (a) combined with FK506 on rat cardiac allograft; type: in vivo; details: single-drug group: FK506 0.32 mg/kg, daily gastric intubation for 14 days; Lewis donor to ACI recipient heterotopic cardiac transplantation
Protocol: Test 2: Protective Effect of the Compound (a) Combined with FK 506 on Rat Cardiac Allograft
Experiments were performed on male Lewis and ACI rats weighing 175-200 g. Rats were anesthetized with sodium pentobarbital (50 mg/kg, i.p.), and underwent allogeneic (Lewis donor to ACI recipient) heterotopic intra-abdominal cardiac transplantation. Experimental groups were divided into single-drug group and combined-drug group. Single-drug dose of FK506, which was prepared in a manner similar to that disclosed in EP-0184162, was 0.32 mg/kg. Combined-drug dose was FK506 (0.32 mg/kg)+the compound (a) (10 mg/kg). The grafted hearts were monitored by daily palpation where complete rejection was defined as the cessation of palpable contractile activity. Each drug was suspended in a solution of 0.5% methylcellulose, and administered by daily gastric intubation in a volume of 5 ml/kg of body weight for 14 days.
The combination of the compound (a) and an immunosuppressive agent (FK506) was examined to determine whether it could improve rat cardiac allograft survival.

Structure (SMILES) | melting point | MST (day) (Median Survival Time) (rat cardiac allograft) [days]
Cn1c(-c2ccc(-n3cnc4ccccc43)cc2)cnc1[C@H](Cc1ccccn1)N(C=O)c1cc2ccccc2o1 [Example 32, (1S)-N-[1-[5-[4-(1-Benzimidazolyl)phenyl]-1-methylimidazol-2-yl]-2-(2-pyridyl)ethyl](benzo[b]furan-2-yl)formamide] | 152 to 155 °C | 
Cn1c(-c2ccc(-c3cccnc3)cc2)cnc1[C@H](Cc1ccccn1)N(C=O)c1cc2cc(Cl)ccc2o1 [Example 34, (1S)-(5-Chlorobenzo[b]furan-2-yl)-N-[1-[1-methyl-5-[4-(3-pyridyl)-phenyl]imidazol-2-yl]-2-(2-pyridyl)ethyl]formamide] | 158 to 160 °C | 
Cn1c(-c2ccc(-c3cccnc3)cc2)cnc1[C@H](Cc1ccccn1)N(C=O)c1cc2cc(Br)ccc2o1 [Example 35, (1S)-(5-Bromobenzo[b]furan-2-yl)-N-[1-[1-methyl-5-[4-(3-pyridyl)-phenyl]imidazol-2-yl]-2-(2-pyridyl)ethyl]formamide] | 168 to 171 °C | 
Cn1c(-c2ccc(-c3ccccn3)cc2)cnc1[C@H](Cc1ccccn1)N(C=O)c1cc2cc(Cl)ccc2o1 [Example 36, (1S)-(5-Chlorobenzo[b]furan-2-yl)-N-[1-[1-methyl-5-[4-(2-pyridyl)-phenyl]imidazol-2-yl]-2-(2-pyridyl)ethyl]formamide] | 175 to 180 °C | 
Cn1c(-c2ccc(-c3ccncc3)cc2)cnc1[C@H](Cc1ccccn1)N(C=O)c1cc2cc(Cl)ccc2o1 [Example 37, (1S)-(5-Chlorobenzo[b]furan-2-yl)-N-[1-[1-methyl-5-[4-(4-pyridyl)-phenyl]imidazol-2-yl]-2-(2-pyridyl)ethyl]formamide] | 135 to 140 °C | 
Cn1c(-c2ccc(-c3cncs3)cc2)cnc1[C@H](Cc1ccccn1)N(C=O)c1cc2cc(Cl)ccc2o1 [Example 38, (1S)-(5-Chlorobenzo[b]furan-2-yl)-N-[1-[1-methyl-5-[4-(5-thiazolyl)phenyl]imidazol-2-yl]-2-(2-pyridyl)ethyl]formamide] | 165 to 167 °C | 
Cn1c(-c2ccc([N+](=O)[O-])cc2)cnc1[C@H](Cc1ccccn1)N(C=O)c1cc2cc(C(F)(F)F)ccc2o1 [Example 39, (1S)-N-[1-[1-Methyl-5-(4-nitrophenyl)imidazol-2-yl]-2-(2-pyridyl)-ethyl][5-(trifluoromethyl)benzo[b]furan-2-yl]formamide] | 192 to 194 °C | 
CCCn1c(-c2ccc(-n3ccnc3)cc2)cnc1[C@H](Cc1ccccn1)N(C=O)c1cc2cc(Br)ccc2o1 [Example 44, (1S)-(5-Bromobenzo[b]furan-2-yl)-N-[1-[5-[4-(1-imidazolyl)phenyl]-1-propylimidazol-2-yl]-2-(2-pyridyl)ethyl]formamide] | 93 to 99 °C | 
Cn1c(-c2ccc(-n3ccnc3)cc2)cnc1[C@H](Cc1ccccn1)N(C=O)c1cc2cc(Br)ccc2o1 [Example 46, (1S)-(5-Bromobenzo[b]furan-2-yl)-N-[1-[5-[4-(1-imidazolyl)-phenyl]-1-methylimidazol-2-yl]-2-(2-pyridyl)ethyl]formamide] | 197 to 199 °C | 
CCCn1c(-c2ccc(-n3ccnc3)cc2)cnc1[C@H](Cc1ccccn1)N(C=O)c1cc2cc(Cl)ccc2o1 [Example 48, (1S)-(5-Chlorobenzo[b]furan-2-yl)-N-[1-[5-[4-(1-imidazolyl)-phenyl]-1-propylimidazol-2-yl]-2-(2-pyridyl)ethyl]formamide] | 173 to 175 °C | 
Cn1c(-c2ccc(-n3ccnc3)cc2)cnc1[C@H](Cc1ccccn1)N(C=O)c1cc2cc(Cl)ccc2o1 [Example 49, (1S)-(5-Chlorobenzo[b]furan-2-yl)-N-[1-[5-[4-(1-imidazolyl)-phenyl]-1-methylimidazol-2-yl]-2-(2-pyridyl)ethyl]formamide] | 63 to 73 °C | 
Cn1c(-c2ccc(-n3ccnc3)cc2)cnc1[C@H](Cc1ccccn1)N(C=O)c1cc2cc([N+](=O)[O-])ccc2o1 [Example 50, (1S)-N-[1-[5-[4-(1-Imidazolyl)phenyl]-1-methylimidazol-2-yl]-2-(2-pyridyl)ethyl](5-nitrobenzo[b]furan-2-yl)formamide] | 221 to 223 °C | 
COc1ccc2oc(N(C=O)[C@@H](Cc3ccccn3)c3ncc(-c4ccc(-n5ccnc5)cc4)n3C)cc2c1 [Example 51, (1S)-N-[1-[5-[4-(1-Imidazolyl)phenyl]-1-methylimidazol-2-yl]-2-(2-pyridyl)ethyl](5-methoxybenzo[b]furan-2-yl)formamide] | 151 to 153 °C | 
CCCn1c(-c2ccc(-n3ccnc3)cc2)cnc1[C@H](Cc1ccncc1)n1c(NC=O)cc2ccccc21 [Example 52, (1S)-N-[1-[5-[4-(1-Imidazolyl)phenyl]-1-propylimidazol-2-yl]-2-(4-pyridyl)ethyl](indol-2-yl) formamide] | 238 to 240 °C (dec.) | 
Cn1c(-c2ccc(-n3ccnc3)cc2)cnc1[C@H](Cc1ccccn1)N(C=O)c1cc2cc(F)ccc2o1 [Example 54, (1S)-(5-Fluorobenzo[b]furan-2-yl)-N-[1-[5-[4-(1-imidazolyl)-phenyl]-1-methylimidazol-2-yl]-2-(2-pyridyl)ethyl]formamide] | 180 to 182 °C | 
CCn1c(-c2ccc(-n3ccnc3)cc2)cnc1[C@H](Cc1ccccn1)N(C=O)c1cc2cc(F)ccc2o1 [Example 55, (1S)-N-[1-[1-Ethyl-5-[4-(1-imidazolyl)phenyl]imidazol-2-yl]-2-(2-pyridyl)ethyl](5-fluorobenzo[b]furan-2-yl)formamide] | 80 to 84 °C | 
CCCn1c(-c2ccc(-n3ccnc3)cc2)cnc1[C@H](Cc1ccccn1)N(C=O)c1cc2cc(F)ccc2o1 [Example 56, (1S)-(5-Fluorobenzo[b]furan-2-yl)-N-[1-[5-[4-(1-imidazolyl)-phenyl]-1-propylimidazol-2-yl]-2-(2-pyridyl)ethyl]formamide] | 77 to 81 °C | 
Cn1c(-c2ccc([N+](=O)[O-])cc2)cnc1[C@H](Cc1ccccn1)N(C=O)c1cc2cc(F)ccc2o1 [Example 63, (1S)-(5-Fluorobenzo[b]furan-2-yl)-N-[1-[1-methyl-5-(4-nitrophenyl)imidazol-2-yl]-2-(2-pyridyl)ethyl]formamide] | 207 to 208 °C | 
Cn1c(-c2ccc([N+](=O)[O-])cc2)cnc1[C@H](Cc1ccccn1)N(C=O)c1cc2ccccc2o1 [Example 64, (1S)-(Benzo[b]furan-2-yl)-N-[1-[1-methyl-5-(4-nitrophenyl)imidazol-2-yl]-2-(2-pyridyl)ethyl]formamide] | 103 to 104 °C | 
Cn1c(-c2ccc(-n3ccnc3)cc2)cnc1[C@H](Cc1ccccn1)N(C=O)c1cc2cccc(Cl)c2o1 [Example 68, (1S)-(7-Chlorobenzo[b]furan-2-yl)-N-[1-[5-[4-(1-imidazolyl)phenyl]-1-methylimidazol-2-yl]-2-(2-pyridyl)ethyl]formamide] | 182 to 184 °C | 
Cc1nccn1-c1ccc(-c2cnc([C@H](Cc3ccccn3)N(C=O)c3cc4cc(Cl)ccc4o3)n2C)cc1 [Example 70, (1S)-(5-Chlorobenzo[b]furan-2-yl)-N-[1[-1-methyl-5-[4-(2-methylimidazol-1-yl)phenyl]imidazol-2-yl]-2-(2-pyridyl)ethyl]formamide] | 159 to 161 °C | 
C=CC[C@@H]1/C=C(\C)C[C@H](C)C[C@H](OC)[C@H]2O[C@@](O)(C(=O)C(=O)N3CCCC[C@H]3C(=O)O[C@H](/C(C)=C/[C@@H]3CC[C@@H](O)[C@H](OC)C3)[C@H](C)[C@@H](O)CC1=O)[C@H](C)C[C@@H]2OC [FK506] |  | 10
